Measured values taken from US20250177366A1, “COMPOSITIONS AND METHODS FOR ALLEVIATING PAIN AND REDUCING ADVERSIVENESS OF STIMULI” (UNIVERSITY OF WASHINGTON, priority 2021, published 2025).

Columns and labels:
Type in all cases: in vivo, Zebrafish (Danio rerio)
[1] = test system: larval zebrafish; test: Light/dark preference (phototaxis) assay; conditions: for effect of co-applied drug on AS1-induced preference for the dark: drug + 2.5 μM AS1; for light/dark preference, drug alone: without AS1
Description: Following this, whether the effects of AS1 were restricted to somatosensation or were generalizable to other aversive stimuli were tested. Thus, the effects of AS1 on light/dark preference were tested. Zebrafish larvae prefer white light environments to dark environments and this preference is inhibited by anxiolytics, analagous to studies in rodents (Lau et al., Proc. Natl. Acad. Sci. U.S.A 2011; 108:2581-2586; Burgess et al., Curr. Biol. 2010; 20:381-386). To measure light/dark preference, larval zebrafish were placed in a square arena and given the choice between a bright white light and total darkness, and the number of larvae on each side was quantified at 30 second intervals. Five 4-minute trials were performed, where the light and dark sides of the arena were reversed between trials. […] Given the precise control over stimulus luminosity in this assay, the effects of altering the intensity of the dark stimulus were explored next. In this gradient version of the phototaxis assay, larval zebrafish were given the choice between a bright white environment and one of six potential shades of darkness, ranging from light gray to solid black. […] This implies that the valence of non-painful noxious stimuli is precisely encoded in an intensity-dependent manner, and that AS1 exerts its effects in proportion to the intensity of the stimulus.
Light/dark preference (phototaxis) assay. In the light/dark preference assay, randomly-selected 6 dpf larval zebrafish (N of 30 to 40) were carefully pipetted onto a 10 cm square petri dish using a 10 mL pipette pump equipped with a glass wide-bored Pasteur pipet. As much E2 media as possible was carefully removed using the same pipet. For single incubation experiments, 30 mL of 1× solutions of the control or test chemical was added to each petri dish, and fish were incubated for 10 minutes at 28.5° C. For double incubation experiments, 15 mL of 1× solutions containing control (DMSO) or test chemicals was added to the larvae-containing petri dish. Following a ten-minute incubation period, 15 mL of the second incubation solution (1× control or test chemical +/−2× AS1) was added to the petri dish, and the fish were incubated for a second ten minute block. The final concentration of DMSO in all solutions was 1%. In all double-incubation experiments, the final concentration of AS1 was 2.5 μM. These petri dishes were then positioned over a horizontally-oriented computer monitor displaying a PowerPoint presentation. For standard light/dark preference assays, a blank white slide was initially presented for one minute, after which the presentation would automatically advance to a slide in which half of the display was black. The petri dish with larvae was positioned such that exactly half was directly over the dark side, and the other half was directly over the light side. After four minutes, the presentation automatically advanced to a slide in which the black and white halves switched places. A total of five four-minute trials, with the dark/light halves automatically switching position between trials, were recorded. For the gradient phototaxis assay, experiments were performed identically, except that the “dark” half of the powerpoint presentation was one of six shades of gray.
In all experiments, an initial still frame of video was taken during the minute where the blank slide was presented in order to quantify the total number of fish in the experiment. Following this, still frames were taken at 30 second intervals for each trial ([…]), and the number of fish present in the light half of the arena were counted. To generate the graphs that looked at swimming patterns over time in a trial (e.g., FIG. 3D), the average percentage of fish in the light at each time point (T=0, T=30, etc.) was calculated across all five trials. […]

[2] = test system: larval zebrafish; test: AITC aversion assay (chemical attraction/aversion, AITC-infused agarose); conditions: for effect of co-applied drug on AS1-induced attraction to AITC / AITC aversion, drug alone: AITC 100 mM in agarose; for effect of co-applied drug on AS1-induced attraction to AITC: drug + AS1 (5 μM; 2.5 μM with SKF and sumanirole); for AITC aversion, drug alone: without AS1
Excerpt: Whether the effects of AS1 extended beyond noxious temperature sensation or could also impact other somatosensory modalities was next explored. To accomplish this, a chemical attraction/aversion assay where a thin layer of agarose was deposited along the edges of a square arena (Jordi et al., Sci. Adv. 2018; 4:1-15) were adapted. Along one wall, the agarose contained the chemical to be tested, while the other three walls were lined with control agarose. It was anticipated that a chemical gradient would be established as chemical diffused from the agarose into the surrounding water. Larvae were pre-incubated in either vehicle or AS1 and then added to the arena and the distance of each larva from the chemical-infused agarose was measured. In control experiments where all four walls of the arena were lined with agarose only, AS1 and vehicle-treated larvae were dispersed evenly throughout the arena (FIG. 3). […] When the nociceptive chemical AITC (100 mM, 10,000× maximal effective dose) was tested, vehicle-treated larvae swam away from the AITC source.
(§1) Chemical attraction/aversion assays. The agarose attraction/aversion assay was adapted from previously described experiments (Jordi et al., Sci. Adv. 2018; 4:1-15). For the AITC aversion assay, AITC and DMSO were added to molten 0.8% agarose to achieve a final concentration of 100 mM AITC and 2% DMSO. For the AS1 attraction/aversion assay, AS1 and DMSO were added to 0.8% molten agar to achieve final concentrations of 50 mM and 2%, respectively. To construct the test chambers, the lids of 10×10 cm square petri dishes (insert cat #and company) were lined on four sides with either the test (chemical-containing) or plain agarose (300 μL per side) and allowed to solidify. For all experiments, 30-40 randomly selected 6 dpf zebrafish were caught with a 10 mL pipette pump (Bel-Air Products, cat #: 13683C) equipped with a glass wide-bored Pasteur pipet (Fisher Scientific, cat #: 22-037-540) and deposited into a standard 10 cm diameter petri dish (Fisher Scientific, cat #: 07-202-031). As much E2 media as possible was carefully removed using the same pipette. For single incubation experiments, 30 mL of 1× solutions of the control or test chemical was added to each petri dish, and fish were incubated for 10 minutes at 28.5° C. For double incubation experiments, 15 mL of 1× solutions containing control (DMSO) or test chemicals was added to the larvae-containing petri dish. Following a ten minute incubation, 15 mL of the second incubation solution (1× control or test chemical +/−2× AS1) was added to the petri dish, and the fish were incubated for a second ten minute block. The final concentration of DMSO in all solutions was 1%. In all double-incubation experiments, the final concentration of AS1 was 5 μM unless otherwise noted. After completion of the last incubation period, the contents of each petri dish were poured into separate agarose-lined square dishes. Swimming behavior was immediately recorded for 20 minutes using the same high-definition camcorder in the thermal preference assays.

[3] = test system: larval zebrafish; test: Thermal preference assay (28.5° C. vs 37.5° C.), non-sensitized; conditions: for effect of co-applied drug on AS1-induced attraction to noxious heat / temperature choice, drug alone: 28.5° C. vs 37.5° C.; for effect of co-applied drug on AS1-induced attraction to noxious heat / effect of co-applied drug on swimming velocity of AS1-treated fish: drug + 5 μM AS1; for temperature choice, drug alone: without AS1; for effect of co-applied drug on swimming velocity of AS1-treated fish: 28.5 and 37.5° C. zones
Description: Thermal preference assay. […] Once an entire plate was loaded with fish, the appropriate incubation solution was added. […] Following incubation in all experiments, the choice testing plate was transported to a dual solid-state heat/cool plate (AHP-1200° C. P; Teca) and centered such that half of each arena was positioned over each side of the heat/cool plate. […] Locomotor behavior was recorded using a Canon high-definition video camcorder suspended at a fixed position above the choice testing plate. Each trial was four minutes in duration.
For single-incubation assays (e.g. testing single chemicals), larval zebrafish were caught in 100 μL E2 media and 100 μL of the control (2% DMSO) or test chemical at 2× concentration was added to each well to achieve the final desired concentration. […] The final DMSO concentration in all solutions was 1%.

[4] = test system: larval zebrafish; test: Chemical attraction/aversion assay with the test chemical itself as source (inherent attractiveness); conditions: 2 mL in trough of 3D-printed arena; SKF 25 μM; AS1 10 μM-1 mM
Excerpt: To confirm that AS1 itself was not attractive, the chemical attraction/aversion assay was used. […] Since the assay was modified to accommodate the inability to dissolve SKF into agarose at high concentrations (see Materials and Methods), the inherent attractiveness of AS1 was re-tested using this new format.
as §1, with “Following a ten minute incubation, 15 mL of the second incubation solution (1× control or test chemical +/−2× AS1) was added to the petri dish, and the fish were incubated for a second ten minute block. The final concentration of DMSO in all solutions was 1%. In all double-incubation experiments, the final concentration of AS1 was 5 μM unless otherwise noted. After completion of the last incubation period, the contents of each petri dish were poured into separate agarose-lined square dishes.” left out
For the SKF attraction/aversion assay, custom 10 cm×10 cm plates using clear resin (Formlabs, cat #: RS-F2-GPCL-04) and a Form 3+3D printer (Formlabs, cat #: PKG-F3-WSVC-BASIC) were designed. […] Swimming behavior was then recorded for 20 minutes. […]

Compound	effect of co-applied drug on AS1-induced preference for the dark [1]	light/dark preference, drug alone [1]	effect of co-applied drug on AS1-induced attraction to AITC [2]	AITC aversion, drug alone [2]	effect of co-applied drug on AS1-induced attraction to noxious heat [3]	temperature choice, drug alone [3]	concentration abolishing AS1-induced preference for the dark entirely ([1]; SCH 10-20 μM + 2.5 μM AS1) [µM]	concentrations that partially attenuate AS1-induced attraction to AITC ([2]; SCH 1-20 μM + 5 μM AS1) [µM]	effect of co-applied drug on swimming velocity of AS1-treated fish [3]	inherent attractiveness of chemical deposited into trough [4]
sumanirole maleate	had no effect	had no effect	did seem to attenuate AS1-mediated attraction to AITC, but only at higher concentrations	had little effect alone in the chemical aversion assay	had no effect	had no effect				
CN1CCc2cc(Cl)c(O)cc2[C@@H](c2ccccc2)C1 [SCH23390]							15	≥ 5		
C=CCN1CCc2c(cc(O)c(O)c2Cl)C(c2ccccc2)C1 (centres unmarked) [SKF82958]	reversed dark preference in fish that were treated with AS1	slight decrease in the proportion of fish found in the light by itself	did block AS1-induced preference to this chemical irritant	had little effect upon aversion to AITC	significantly attenuated the amount of time AS1-treated fish spent at 37.5 °C	slight potentiation of preference for the 28.5 °C side			reduced the swimming velocity of AS1-treated zebrafish in the 28.5 °C zone	mildly attractive
C=CCN1CC[C@]23c4c5ccc(O)c4O[C@H]2C(=O)CC[C@@]3(O)[C@H]1C5 [Naloxone, naloxone]	significantly preferred the dark, regardless of whether 1 μM naloxone was applied	significantly chose the light side of the arena	did not reverse AS1-induced attraction towards AITC	did not affect AITC avoidance	significantly chose the 37.5 °C side	significantly chose the 28.5 °C side of the arena				
CCN1CCCC1CNC(=O)c1cc(S(N)(=O)=O)ccc1OC (centres unmarked) [sulpiride]	had no effect	had no effect	had no effect	had no effect	had no effect	had no effect			had no effect	
